Data as given in patent US8846711B2, “Heterocyclic acrylamides and their use as pharmaceuticals” (Fab Pharma S.A.S., priority 2009, dated 2014).
In brackets after ≈: the same amount, converted by molar mass.

Key:
[1] = target: recombinant S. aureus FabI enzyme (Staphylococcus aureus (strain MRSA252), UniProt Q6GI75); experiment: FabI inhibition, fluorescence based assay; format: biochemical; details: in vitro
Method: Compound inhibitory activity of FabI enzyme is measured in vitro by the […] determination using a fluorescence based assay.
The protein FabI from S. aureus is prepared and purified using standard methods for recombinant protein expression after cloning of the gene in a prokaryotic expression vector.
The biochemical activity of the FabI enzyme is assessed using the following method.
The assay buffer “AB” contained 50 mM ADA (N-(2-acetamido)iminodiacetic acid monosodium salt) pH 6.5, 1 mM dithiothreitol, 0.006% Triton-X100 and 50 mM NaCl.
The following components are added in a white polystyrene Costar plate (Ref 3912) up to a final volume of 55.5 μL: 1.5 μL DMSO or inhibitor dissolved in DMSO and 54 μL of a FabI/NADPH/NADP+ mixture in AB. After 60 min of pre-incubation at room temperature, the reaction is started by addition of 5 μL of trans-2-octenoyl N-acetylcysteamine thioester (t-o-NAC) to a final volume of 60.5 μL. This reaction mixture is then composed of 2 nM FabI, 40 μM NADPH (Sigma, N7505), 10 μM NADP+ (Sigma, N5755), 100 μM t-O-NAC and compound at defined concentration. Fluorescence intensity of NADPH (λex=360 nm, […]) is measured immediately after t-O-NAC addition (T0), and approximately 50 min later (T50) by a Fluostar Optima (BMG) so as to achieve ±30% of NADPH conversion. Enzyme activity is calculated by first subtracting TO signal to T50 and then subtracting background signal (FabI=0). Percentages of inhibition are calculated against untreated samples (Inhibitor=0) and IC50 are fitted to a classical Langmuir equilibrium model using XLFIT (IDBS).

C. albicans (ATCC 90028) = experiment: MIC determination using susceptibility method (broth microdilution); format: cell-based; details: Candida albicans, ATCC90028, read-out: MIC (μg/ml) C. albicans (ATCC 90028)
Method: (§1) Minimum inhibitory concentrations (MICs) were determined by broth microdilution according to CLSI guidelines (CLSI, M100-20^1, M7-A8^2, M27-A3^3). The compounds were tested in the range from […]. Colonies were taken directly from a second-pass culture plate and prepared to a suspension equivalent to the 0.5 McFarland standard using normal saline. […] The panels were incubated at 35° C. for 16 to 20 hours before reading the MIC endpoints. The compounds of Examples 12, 29, 59, 63 and 66-71 were dissolved in DMSO to make the initial solutions of 5120 μg/ml. These solutions were diluted 1:10 in sterile water to a stock solution of 512 μg/ml. The stock solutions were further diluted into the appropriate broth medium for the sequential dilutions used in the broth microdilution panels. S. pneumoniae was tested in Mueller Hinton (MH) broth with 3% lysed horse blood and C. albicans was tested in RPMI-1640 medium. All other organisms were tested in MH broth.

E. coli (ATCC 25922) = experiment: as above; format: cell-based; details: Escherichia coli, ATCC25922, read-out: MIC (μg/ml) E. coli (ATCC 25922)
Method: as §1

E. faecalis (ATCC 29212) = experiment: as above; format: cell-based; details: Enterococcus faecalis, ATCC29212, read-out: MIC (μg/ml) E. faecalis (ATCC 29212)
Method: as §1

MRSA (IHMA #510059) = experiment: as above; format: cell-based; details: Staphylococcus aureus, read-out: MIC (μg/ml) MRSA (IHMA #510059)
Method: as §1

MSSA (IHMA #555189) = experiment: as above; format: cell-based; details: Staphylococcus aureus, read-out: MIC (μg/ml) MSSA (IHMA #555189)
Method: as §1

S. aureus ATCC 29213 = experiment: as above; format: cell-based; details: Staphylococcus aureus, ATCC29213, read-out: MIC (μg/ml) S. aureus ATCC 29213
Method: as §1

[2] = test system: S. pneumoniae (ATCC 49619); experiment: as above; format: cell-based; details: Streptococcus pneumoniae, ATCC49619, read-out: MIC (μg/ml) S. pneumoniae (ATCC 49619)
Method: as §1

human albumin (HSA) = human albumin (HSA) (Homo sapiens (Human), UniProt P02768); experiment: HSA binding analysis using a chiral HSA column; format: in vitro ADME
human albumin (HSA), sequence (P02768 25-609): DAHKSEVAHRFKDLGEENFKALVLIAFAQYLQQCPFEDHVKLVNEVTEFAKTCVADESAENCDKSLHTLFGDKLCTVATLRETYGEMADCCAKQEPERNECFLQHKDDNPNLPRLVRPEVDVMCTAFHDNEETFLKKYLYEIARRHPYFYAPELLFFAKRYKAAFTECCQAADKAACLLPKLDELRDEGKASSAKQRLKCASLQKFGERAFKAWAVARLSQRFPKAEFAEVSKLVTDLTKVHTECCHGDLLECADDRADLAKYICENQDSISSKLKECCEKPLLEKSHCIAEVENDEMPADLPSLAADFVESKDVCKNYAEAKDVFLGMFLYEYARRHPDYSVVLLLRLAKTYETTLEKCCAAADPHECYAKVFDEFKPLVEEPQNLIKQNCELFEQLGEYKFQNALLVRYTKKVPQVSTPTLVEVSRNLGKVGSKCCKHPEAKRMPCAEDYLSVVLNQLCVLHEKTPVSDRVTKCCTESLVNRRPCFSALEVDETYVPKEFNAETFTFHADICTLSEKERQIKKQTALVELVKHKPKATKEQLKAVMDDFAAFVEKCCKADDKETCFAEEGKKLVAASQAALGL
Text: The test system used in this analysis was an HSA chiral column.
The relationship between the retention time (Tr) and percentage of albumin binding (AB %) depended on the dead time (TO) and the capacity factor (k′): AB%=[k′/(k′+1)]*100
HSA binding was classified as follows:
75%≦AB<90%: Moderate binding

With O=C1CCc2cc(/C=C/C(=O)N3CC(OCc4cccs4)C3)cnc2N1 [Example 12, 6-{(1E)-3-Oxo-3-[3-(2-thienylmethoxy)azetidin-1-yl]prop-1-en-1-yl}-3,4-dihydro-1,8-naphthyridin-2(1H)-one] as the compound, how does the IC50 [1] read?
Its IC50 is 13 nM.

And the MIC (C. albicans (ATCC 90028))?
Its MIC is greater than 128 µg/mL.

And the MIC (E. coli (ATCC 25922))?
The MIC was greater than 128 µg/mL.

What about the MIC (E. faecalis (ATCC 29212)) of the same compound?
Its MIC is greater than 128 µg/mL.

What about the MIC (MRSA (IHMA #510059)) of the same compound?
The MIC was 1 µg/mL (≈ 2.71 µM).

What about the MIC (MSSA (IHMA #555189)) of the same compound?
The MIC was 1 µg/mL (≈ 2.71 µM).

What about the MIC (S. aureus ATCC 29213) of the same compound?
Its MIC is 1 µg/mL (≈ 2.71 µM).

What about the MIC [2] of the same compound?
Its MIC is greater than 128 µg/mL.

What about the “HSA Binding (%)” value (human albumin (HSA); AB%=[k′/(k′+1)]*100, chiral HSA column, pH 7.0) of the same compound?
The value was 45.2%.

What about the “k′” value (human albumin (HSA); capacity factor, k′=(Tr−T0)/T0) of the same compound?
Its value is 0.826.

And the “Conclusion (HSA binding class)” value (human albumin (HSA); chiral HSA column)?
Its value is “Low binding (AB<75%: Low binding)”.

What about the “Tr” value (human albumin (HSA); retention time on chiral HSA column, pH 7.0, 37° C.) of the same compound?
The value was 1.410 min.

What about the “affinity in vitro to human albumin” value (human albumin (HSA); text summary of Table 7) of the same compound?
The value was “low affinity”.
